Measurements from paper PMC6897945, “CytA, a reductase in the cytorhodin biosynthesis pathway, inactivates anthracycline drugs in Streptomyces” (Communications Biology, 2019).
≈ marks a conversion by molar mass, not a printed value. Where two headings read alike, the source gives them in different places.

Tests used:
[1] = system: Staphylococcus aureus ATCC 29213; assay: Antibacterial activity, broth dilution MIC; assay type: cell-based
Protocol: (§1) The antibacterial activities of compounds 1–13 were assessed using twofold serial dilutions of antibacterial agents in MH broth, according to previously reported standard methods provided by Clinical and Laboratory Standards Institute (CLSI)[30]. These compounds were tested for their antibacterial activities against Bacillus subtilis BS01, Staphyloccocus aureus ATCC 29213, Staphyloccocus aureus 745524, Bacillus thuringiensis BT01, and Enterococcus faecalis ATCC 29212 using a broth dilution method.

E. faecalis ATCC 29212 = assay: Antibacterial activity, broth dilution MIC; assay type: cell-based; details: Enterococcus faecalis
Protocol: as §1

B. subtilis BS01 = assay: Antibacterial activity, broth dilution MIC; assay type: cell-based; details: Bacillus subtilis
Protocol: as §1

B. thuringiensis BT01 = assay: Antibacterial activity, broth dilution MIC; assay type: cell-based; details: Bacillus thuringiensis
Protocol: as §1

[2] = system: Staphylococcus aureus 745524; assay: Antibacterial activity, broth dilution MIC; assay type: cell-based
Protocol: as §1

[3] = Cytotoxic activity, MTT method; assay type: cell-based; details: human
Description: (§2) All data were obtained in triplicate and are presented as means.

[4] = system: MDA-MB-231 human triple negative breast adenocarcinoma cell line; assay: Cytotoxic activity, MTT method; assay type: cell-based; details: MDA-MB-231, read-out: Cytotoxic activities IC50, MDA-MB-231
Description: as §2

[5] = system: HepG2 human hepatocellular carcinoma cell line; assay: Cytotoxic activity, MTT method; assay type: cell-based; details: HepG2, read-out: Cytotoxic activities IC50, HepG2
Description: as §2

[6] = system: MCF-7 human breast adenocarcinoma cell line; assay: Cytotoxic activity, MTT method; assay type: cell-based; details: MCF7, read-out: Cytotoxic activities IC50, MCF-7
Description: as §2

[7] = system: RKO human colorectal carcinoma cell line; assay: Cytotoxic activity, MTT method; assay type: cell-based; details: read-out: Cytotoxic activities IC50, RKO
Description: as §2

[8] = system: MDA-MB-468 human triple negative breast adenocarcinoma cell line; assay: Cytotoxic activity, MTT method; assay type: cell-based; details: MDA-MB-468, read-out: Cytotoxic activities IC50, MDA-MB-468
Description: as §2

[9] = system: A549 human lung cancer cell line; assay: Cytotoxic activity, MTT method; assay type: cell-based; details: A549, read-out: Cytotoxic activities IC50, A549
Description: as §2

[10] = system: HeLa human cervical carcinoma cell line; assay: Cytotoxic activity, MTT method; assay type: cell-based; details: read-out: Cytotoxic activities IC50, HeLa
Description: as §2

CytA = assay: Enzyme kinetics of CytA (formation of deglycosylation products, anaerobic); assay type: biochemical, Streptomyces sp. SCSIO 1666; details: substrate of CytA; 0.5 μM CytA, 20 μM NADH, anaerobic
Protocol: Enzymatic reactions were carried out under anaerobic conditions in an anaerobic workstation (Don Whitley Scientific A45) containing a gas phase of N2/H2/CO2 (80:10: 10%, by vol.). ^1H, ^13C, and 2D (COSY, HMQC, HMBC and NOESY) NMR spectra were recorded at 25 °C with an Avance 700 MHz spectrometer instruments (Bruker). High-resolution mass spectra were obtained with a Maxis quadrupole-time-of-flight mass spectrometer (Bruker).
To validate the in vitro biochemical activities of CytA, we overexpressed and purified this enzyme as a soluble N-terminally His6-tagged protein from E. coli (Fig. 2a). Tris-Cl buffer was made O2 free by boiling, followed by cooling under N2 flow; NADH stock solution (dissolved in Tris-Cl), substrate stock solution (dissolved in DMSO), and enzyme solution (dissolved in Tris-Cl supplemented with 10% glycerin) were subjected to O2 eliminating process in the anaerobic workstations for at least two cycles (40 min for one cycle). CytA enzymatic activity was tested in 50 μL volume containing 50 mM Tris-Cl (pH 8.0), 25 μM substrate, 0.5 μM CytA, and 20 μM NADH, at 37 °C for 30 min. The reaction was quenched with the addition to 2 volumes MeOH. After centrifugation to remove protein, supernatants were analyzed with Agilent HPLC equipment using a Phenomenex Prodigy ODS column S5 (150 × 4.60 mm, 5 μ) and UV detection at 254 and 500 nm. Samples were eluted with a gradient elution of phase A containing 0.1% TFA in ddH2O and phase B containing 100% acetonitrile, at a flow rate of 1 mL/min.
Kinetic analyses of CytA with putative substrates 6–10, daunorubicin, doxorubicin, idarubicin, epirubicin and pirarubicin, involved a reaction volume of 20 μL consisting of 50 mM Tris-Cl (pH 8.0), 0.5 μM CytA, 20 μM NADH, […]
All assays were performed in triplicate and Km and Vmax values were calculated on the basis of curve fitting to the Michaelis-Menten equation: v = Vmax *[S]/(Km + [S]) (Supplementary Fig. 7).
For kinetics of CytA, Origin 9.0 (OriginLab Co.) was used to analyze on the basis of curve fitting to the Michaelis-Menten equation. Experiments were performed in triplicate independently. For antibacterial activity, experiments were performed in triplicate using 96-well plates.

[11] = ATCC29213, Staphylococcus aureus ATCC 29213, triplicate, read-out: MIC values, SA1
[12] = ATCC29212, E. faecalis ATCC 29212, triplicate, read-out: MIC values, EF
[13] = B. subtilis BS01, triplicate, read-out: MIC values, BS
[14] = B. thuringiensis BT01, triplicate, read-out: MIC values, BT
[15] = Staphylococcus aureus 745524, triplicate, read-out: MIC values, SA2
[16] = Staphylococcus aureus, ATCC29213, read-out: MIC values, SA1
[17] = ATCC29212, read-out: MIC values, EF
[18] = Staphylococcus aureus, 745524, read-out: MIC values, SA2
[19] = Huvec-12 normal cell line, read-out: Cytotoxic activities IC50, Huvec-12
[20] = L02 normal cell line, read-out: Cytotoxic activities IC50, L02

CC1(C)S[C@@H]2[C@H](NC(=O)[C@H](N)c3ccccc3)C(=O)N2[C@H]1C(=O)O [Amp, Ampicillin, reference compound]
MIC [1, 11]: 4 µg/mL (≈ 11.4 µM)
MIC (E. faecalis ATCC 29212; [12]): 2 µg/mL (≈ 5.72 µM)
MIC (B. subtilis BS01; [13]): 4 µg/mL (≈ 11.4 µM)
MIC (B. thuringiensis BT01; [14]): 4 µg/mL (≈ 11.4 µM)
MIC [2, 15]: 8 µg/mL (≈ 22.9 µM)

CC[C@@]1(O[C@H]2C[C@H](N(C)C)[C@H](O)[C@H](C)O2)CCc2c(O)c3c(c(O)c2[C@H]1O[C@H]1C[C@H](N(C)C)[C@H](O[C@H]2CC[C@H](O[C@H]4CC[C@H](O)[C@H](C)O4)[C@H](C)O2)[C@H](C)O1)C(=O)c1cccc(O)c1C3=O [Compound 1, cytorhodin X]
MIC [1, 16]: 2 µg/mL (≈ 2.19 µM)
MIC (E. faecalis ATCC 29212; [17]): 2 µg/mL (≈ 2.19 µM)
MIC (B. subtilis BS01; BS01, read-out: MIC values, BS): 2 µg/mL (≈ 2.19 µM)
MIC (B. thuringiensis BT01; BT01, read-out: MIC values, BT): 4 µg/mL (≈ 4.38 µM)
MIC [2, 18]: 2 µg/mL (≈ 2.19 µM)
IC50 [3, 19]: 4.23 µM
IC50 [3, 20]: 3.5 µM
IC50 [4]: 18.7 µM
IC50 [5]: 3040 nM
IC50 [6]: 12.7 µM
IC50 [7]: 11.2 µM
IC50 [8]: 21.3 µM
IC50 [9]: 3400 nM
IC50 [10]: 2040 nM

CC[C@@]1(O[C@H]2C[C@H](N(C)C)[C@H](O)[C@H](C)O2)CCc2c(O)c3c(c(O)c2[C@H]1O[C@H]1C[C@H](N(C)C)[C@H](O[C@H]2C[C@H](O)[C@H](O[C@H]4CC[C@H](O)[C@H](C)O4)[C@H](C)O2)[C@H](C)O1)C(=O)c1cccc(O)c1C3=O [Compound 2, cytorhodin Y]
MIC [1, 11]: 2 µg/mL (≈ 2.15 µM)
MIC (E. faecalis ATCC 29212; [12]): 4 µg/mL (≈ 4.31 µM)
MIC (B. subtilis BS01; [13]): 1 µg/mL (≈ 1.08 µM)
MIC (B. thuringiensis BT01; [14]): 4 µg/mL (≈ 4.31 µM)
MIC [2, 15]: 1 µg/mL (≈ 1.08 µM)
IC50 [3, 19]: 4.71 µM
IC50 [3, 20]: 4.46 µM
IC50 [4]: 17.5 µM
IC50 [5]: 6170 nM
IC50 [6]: 9.89 µM
IC50 [7]: 11.8 µM
IC50 [8]: 16.4 µM
IC50 [9]: 7250 nM
IC50 [10]: 3250 nM

CC[C@@]1(O)CCc2c(O)c3c(c(O)c2[C@H]1O[C@H]1C[C@H](N(C)C)[C@H](O[C@H]2CC[C@H](O[C@H]4CC[C@H](O)[C@H](C)O4)[C@H](C)O2)[C@H](C)O1)C(=O)c1cccc(O)c1C3=O [Compound 3, cosmomycin A]
MIC [1, 11]: 0.25 µg/mL (≈ 0.331 µM)
MIC (E. faecalis ATCC 29212; [12]): 0.06 µg/mL (≈ 0.0794 µM)
MIC (B. subtilis BS01; [13]): 0.5 µg/mL (≈ 0.661 µM)
MIC (B. thuringiensis BT01; [14]): 0.25 µg/mL (≈ 0.331 µM)
MIC [2, 15]: 0.125 µg/mL (≈ 0.165 µM)
IC50 [3, 19]: 0.31 µM
IC50 [3, 20]: 0.42 µM
IC50 [4]: 1.36 µM
IC50 [5]: 23 nM
IC50 [6]: 0.82 µM
IC50 [7]: 0.083 µM
IC50 [8]: 0.81 µM
IC50 [9]: 32 nM
IC50 [10]: 150 nM

CC[C@@]1(O)CCc2c(O)c3c(c(O)c2C1)C(=O)c1cccc(O)c1C3=O [Compound 12]
MIC [1, 11]: > 32 µg/mL
MIC (E. faecalis ATCC 29212; [12]): > 32 µg/mL
MIC (B. subtilis BS01; [13]): > 32 µg/mL
MIC (B. thuringiensis BT01; [14]): > 32 µg/mL
MIC [2, 15]: > 32 µg/mL

CC[C@@]1(O)CCc2c(O)c3c(c(O)c2[C@H]1O)C(=O)c1cccc(O)c1C3=O [Compound 13]
MIC [1, 11]: > 32 µg/mL
MIC (E. faecalis ATCC 29212; [12]): > 32 µg/mL
MIC (B. subtilis BS01; [13]): > 32 µg/mL
MIC (B. thuringiensis BT01; [14]): > 32 µg/mL
MIC [2, 15]: > 32 µg/mL

COc1cccc2c1C(=O)c1c(O)c3c(c(O)c1C2=O)C[C@@](O)(C(C)=O)C[C@@H]3O[C@H]1C[C@H](N)[C@H](O)[C@H](C)O1 [Compound 22, daunorubicin, reference compound]
Km (CytA): 36.3 µM
kcat (CytA): 0.58 min⁻¹

COc1cccc2c1C(=O)c1c(O)c3c(c(O)c1C2=O)C[C@@](O)(C(=O)CO)C[C@@H]3O[C@H]1C[C@H](N)[C@H](O)[C@H](C)O1 [Compound 23, doxorubicin, reference compound]
Km (CytA): 31 µM
kcat (CytA): 0.61 min⁻¹
IC50 ([3]; Huvec-12 normal umbilical vein endothelial cells, Huvec-12 normal cell line, read-out: Cytotoxic activities IC50, Huvec-12): 6.31 µM
IC50 ([3]; L02 normal hepatic cells, L02 normal cell line, read-out: Cytotoxic activities IC50, L02): 7.67 µM
IC50 [4]: 16.9 µM
IC50 [5]: 410 nM
IC50 [6]: 0.9 µM
IC50 [7]: 1.45 µM
IC50 [8]: 2.11 µM
IC50 [9]: 2310 nM
IC50 [10]: 830 nM

CC(=O)[C@]1(O)Cc2c(O)c3c(c(O)c2[C@@H](O[C@H]2C[C@H](N)[C@H](O)[C@H](C)O2)C1)C(=O)c1ccccc1C3=O [Compound 24, idarubicin, reference compound]
Km (CytA): 28.5 µM
kcat (CytA): 0.44 min⁻¹

COc1cccc2c1C(=O)c1c(O)c3c(c(O)c1C2=O)C[C@@](O)(C(=O)CO)C[C@@H]3O[C@H]1C[C@H](N)[C@@H](O)[C@H](C)O1 [Compound 25, epirubicin, reference compound]
Km (CytA): 38.6 µM
kcat (CytA): 0.53 min⁻¹

COc1cccc2c1C(=O)c1c(O)c3c(c(O)c1C2=O)C[C@@](O)(C(=O)CO)C[C@@H]3O[C@H]1C[C@H](N)[C@H](O[C@@H]2CCCCO2)[C@H](C)O1 [Compound 26, pirarubicin, reference compound]
Km (CytA): 49.3 µM
kcat (CytA): 0.74 min⁻¹

CN[C@H](CC(C)C)C(=O)N[C@H]1C(=O)N[C@@H](CC(N)=O)C(=O)N[C@H]2C(=O)N[C@H]3C(=O)N[C@H](C(=O)N[C@H](C(=O)O)c4cc(O)cc(O)c4-c4cc3ccc4O)[C@H](O)c3ccc(c(Cl)c3)Oc3cc2cc(c3O[C@@H]2O[C@H](CO)[C@@H](O)[C@H](O)[C@H]2O[C@H]2C[C@](C)(N)[C@H](O)[C@H](C)O2)Oc2ccc(cc2Cl)[C@H]1O [Van, Vancomycin, reference compound]
MIC [1, 16]: 0.5 µg/mL (≈ 0.345 µM)
MIC (E. faecalis ATCC 29212; [17]): 0.25 µg/mL (≈ 0.173 µM)
MIC (B. subtilis BS01; BS01, read-out: MIC values, BS): 0.5 µg/mL (≈ 0.345 µM)
MIC (B. thuringiensis BT01; BT01, read-out: MIC values, BT): 0.5 µg/mL (≈ 0.345 µM)
MIC [2, 18]: 1 µg/mL (≈ 0.69 µM)
